Measurements reported in PubChem BioAssay AID743417 (Broad Institute, 2014).
Records with an inconclusive call do not appear.

Each compound was assayed on Clone20 osteoblast Shn3 3'UTR firefly luciferase, 24 h (assay: Schnurri-3 3'UTR-luciferase signal suppressors – cell-based, Clone20 osteoblasts, luminescence, dry powder, set 2, dose response (AID 743417)).

Row | Structure (SMILES) | AC50
1 | COc1ccc(-c2csc(NC(=O)C3CCN(c4ncnc5sc(C)c(C)c45)CC3)n2)cc1OC | 1420 nM
2 | O=C(Cn1cc(C(=O)c2ccco2)c2ccccc21)Nc1ccccc1F | 2600 nM
3 | Cc1cc(Cl)n2c(nc3cc(F)c(F)cc32)c1C#N | 3560 nM
4 | C#CC(=O)N(c1ccc(OC)cc1OC)C(C(=O)NC1CCCC1)c1cccs1 (stereo not given) | 7120 nM
5 | CC(C)C[C@@H](CO)N(Cc1ccccc1)S(=O)(=O)N(Cc1ccccc1)[C@H](CO)CC(C)C | 10100 nM
6 | Cc1ccc(-n2ncc3c2CCCC3NC(=O)c2ocnc2C)cc1C (stereo not given) | 1290 nM
7 | O=S(=O)(c1ccc(Cl)cc1)N1CCN(c2ncnc3sccc23)CC1 | 3040 nM
8 | CCOC(=O)C1CCN(S(=O)(=O)c2c(Cl)ccc3nonc23)CC1 | 919 nM
9 | FC(F)(F)c1nnc(-c2ccccc2)nc1Sc1ccc(Cl)cc1 | 14700 nM
10 | CC(C)c1ccc(Oc2cccc3c2S(=O)(=O)N(C2CCCC2)CC(COCc2ccccc2)O3)cc1 (stereo not given) | 15500 nM
11 | CCOc1ccc(CCN2C(=S)N([C@@H](CC(C)C)CN3CCCC3CN3C(=S)NC[C@@H]3Cc3ccc(O)cc3)C[C@@H]2Cc2ccc(O)cc2)cc1 (stereo not given in full) | 11500 nM
12 | Cc1ccc(C)c(S(=O)(=O)N2CCN(C(=O)C3CCN(c4ncnc5sc(C)c(C)c45)CC3)CC2)c1 | 2820 nM
13 | CC[C@H](C)C(=O)O[C@H]1C[C@@H](C)C=C2C=C[C@H](C)[C@H](CC[C@@H]3C[C@@H](O)CC(=O)O3)[C@H]21 | 1620 nM
14 | O=C1CC(Sc2nnnn2-c2ccccc2)C(=O)N1c1cccc(Cl)c1 (stereo not given) | 8530 nM
15 | CCCCC(=O)NC(c1ccccc1)c1ccc2cccnc2c1O (stereo not given) | 2350 nM
16 | CC(=O)Nc1ccc(NC(=O)c2nc(S(=O)(=O)Cc3cccc(C)c3)ncc2Cl)cc1 | 528 nM
17 | Cc1ccc(-c2nn(C(C)(C)C)c3ncnc(N)c23)cc1 | 5890 nM
18 | COc1ccc(CC(N)c2csc(NC(=O)c3cc(C(C)(C)C)nn3Cc3ccccc3)n2)cc1 (stereo not given) | 9530 nM
19 | CCOC(=O)C1CCN(C(=O)c2ccc(OCC(=O)Nc3cccc(C(F)(F)F)c3)c(OC)c2)CC1 | 1750 nM
20 | C=C1C(=O)C23CCC4C(C)(C(=O)OC)CCCC4(C)C2CCC1(O)C3 (stereo not given) | 976 nM
21 | O=[N+]([O-])c1cc(CN2CCN(c3ccccc3)CC2)c(O)c2ncccc12 | 1990 nM
22 | O=C(NCc1cccnc1)/C(=C\c1ccc(-c2ccc(Br)cc2)o1)S(=O)(=O)c1ccccc1 | 6330 nM
23 | NC(=Nc1nc(-c2ccccn2)cc2ccccc12)c1ccccn1 | < 260 nM
24 | CCOc1cc(N2CCOCC2)c(OCC)cc1NC(=O)COc1cccc2cccnc12 | 2410 nM
25 | O=C(Nc1ccc(F)cc1)c1nc(S(=O)(=O)Cc2ccccc2)ncc1Cl | 3380 nM
26 | CC(=O)N1CCN(c2ccc(NC(=O)c3ccc([N+](=O)[O-])o3)cc2Cl)CC1 | 1080 nM
27 | Cc1cccc(NC(=O)CSc2nc3ccccc3c(=O)n2C)c1C | 2980 nM

Row | Structure (SMILES) | AC50
28 | O=C(Nc1ccc(S(=O)(=O)N2CCN(Cc3ccccc3)CC2)cc1)c1cnccn1 | 1650 nM
29 | CCC(CC)CC1CN2CCc3cc(OC)c(OC)cc3C2CC1(O)CC (stereo not given) | 2000 nM
30 | O=C1C=CC(O)(c2cc(=O)c3c(O)cc(O)cc3o2)C=C1 | 5120 nM
31 | COc1ccc(OC)c2sc(N(CCN(C)C)C(=O)/C=C/c3cccs3)nc12 | 12700 nM
32 | C=C(C)C(=O)O[C@H]1C/C(C)=C\C(=O)/C=C(\C)[C@H](O)[C@@H]2OC(=O)C(=C)[C@@H]21 | 3020 nM
33 | COc1cccc(NC(=O)c2nc(S(C)(=O)=O)ncc2Cl)c1 | 834 nM
34 | COC(=O)C1=C(c2ccc(F)cc2OCc2ccccc2)C[C@@H]2CC[C@H]1N2C(=O)NC1Cc2ccccc2C1 | 8000 nM
35 | COc1cc(C2c3cc4c(cc3C(OC3OC5COC(c6cccs6)OC5C(O)C3O)C3COC(=O)C23)OCO4)cc(OC)c1O (stereo not given) | 1110 nM
36 | CC(C)C(=O)NC(c1ccco1)c1ccc2cccnc2c1O (stereo not given) | 2050 nM
37 | COc1ccc(Cl)cc1N/C(N)=N/c1nc(CSc2ccc(C)cc2)cc(=O)[nH]1 | 1820 nM
38 | COc1ccc(/C=C/C(=O)c2ccc(C(=O)/C=C/c3ccc(OC)c(OC)c3)cc2)cc1OC | 5180 nM
39 | Cc1sc2ncnc(N3CCN(CCOc4ccc(Cl)cc4)CC3)c2c1C | 1350 nM
40 | CCc1nc(N)nc(N)c1-c1ccc(N(C)Cc2ccccc2)c([N+](=O)[O-])c1 | < 260 nM
41 | CCN1CCN(Cc2ccc(NC(=O)c3ccc(C)c(NC(=O)C(=O)c4c[nH]c5ccccc45)c3)cc2C(F)(F)F)CC1 | 7490 nM
42 | CCCCn1c(-c2nonc2NC(=O)c2ccccc2Cl)nc2ccccc21 | 1390 nM
43 | Cc1ccc(C(=O)Nc2cnc3ccccc3c2)cc1 | 4040 nM
44 | COc1ccc(NS(=O)(=O)c2ccc3ccccc3c2)c2ncccc12 | 4820 nM
45 | COc1cccc(-n2c(C)nc3c(cnn3-c3ccc(Cl)cc3)c2=O)c1 | 391 nM
46 | COc1ccc2c(c1)sc1nc(-c3ccccc3)cn12 | 7370 nM
47 | COc1ccc(CNC(=O)C(C)n2ccc3cc(S(=O)(=O)N4CCCCCC4)ccc32)cc1 (stereo not given) | 518 nM
48 | CCc1ccccc1NC(=O)COC(=O)c1c(C)nsc1NC | 2480 nM
49 | Cc1csc(NC(=O)Cc2nn(C)c(=O)c3ccccc23)n1 | 6820 nM
50 | COc1ccc(C[C@H]2NC[C@H](O)[C@H]2OC(C)=O)cc1 | 882 nM
51 | CC(C)OC(=O)c1ccc(NCc2cc(O)ccc2O)cc1Cl | 2150 nM
52 | CCOc1ccc(S(=O)(=O)N(C)c2ccc(OCC(=O)Nc3nc4ccccc4s3)cc2)cc1 | 2820 nM
53 | CCCCNc1nc2c(c(=O)n(C)c(=O)n2C)n1Cc1cccc(OC)c1 | 284 nM
54 | CS(=O)(=O)c1ncc(Cl)c(C(=O)Nc2ccc(OC(F)F)cc2)n1 | 682 nM

Row | Structure (SMILES) | AC50
55 | C=C1CC(COc2cc(=O)oc3ccccc23)(c2ccccc2)OC1=O (stereo not given) | 3930 nM
56 | COc1ccc(OC)c(NC(=O)c2nc(S(=O)(=O)Cc3ccccc3)ncc2Cl)c1 | 2080 nM
57 | CN(C)C1=NC[C@H](Cc2ccccc2)N1CCCC1CCCCC1 | 1470 nM
58 | CCC(C)c1ccc(S(=O)(=O)N2CCN(C(=O)c3ccc(Cl)c(S(=O)(=O)N4CCOCC4)c3)CC2)cc1 (stereo not given) | 5320 nM
59 | COc1ccc2c(c1OC)C(=O)N1c3ccccc3C(=O)N(c3ccccc3F)C21 (stereo not given) | 11600 nM
60 | Cn1cccc1C(=O)NC(=O)COC(=O)c1ccc(S(C)(=O)=O)c([N+](=O)[O-])c1 | 15100 nM
61 | CCc1ccc(CN(C)C(=O)c2cc(COc3cccc4cnccc34)on2)cc1 | 1920 nM
62 | CN(Cc1ccc(OCC(O)CN2CCCCC2)cc1)Cc1ccnc2ccccc12 (stereo not given) | 1210 nM
63 | Cc1cc(C)nc(/N=C(\N)Nc2ccc(-c3ccccc3)cc2)n1 | 4450 nM
64 | CCN1CCN(Cc2ccc(NC(=O)c3cc(NC(=O)c4cncc(-c5cccs5)c4)cc(OC)c3)cc2C(F)(F)F)CC1 | 9680 nM
65 | COc1cc2c(cc1OC)C1C(=O)c3ccc4c(c3OC1CO2)CC(C(C)C)O4 (stereo not given) | < 260 nM
66 | COC(=O)/C=C/S(=O)(=O)c1ccc(NC(C)=O)cc1 | 7300 nM
67 | COc1ccc(CCNc2ncnc3c2oc2ccccc23)cc1OC | 524 nM
68 | CC(N)C(=O)NC1C2C(=C(O)CC(O)C2O)C(=O)OC1(C)C(Cl)Cl (stereo not given) | 1850 nM
69 | CSc1ccc(CN(C)C(=O)c2cccc(S(=O)(=O)N3CCN(Cc4ccccc4)CC3)c2)cc1 | 2890 nM
70 | Cc1ccc(OCCN2CCN(c3ncnc4sc(C)c(C)c34)CC2)cc1 | 754 nM
71 | CNC(=O)c1nnsc1S(=O)c1ccc(Cl)cc1 (stereo not given) | 2020 nM
72 | CCOC(=O)c1c(CSc2ccc(CC)cc2)oc2ccc(O)c(CN(C)C)c12 | 3050 nM
73 | Cc1ccc(NC(=O)c2cc(S(=O)(=O)NCCC3=CCCCC3)ccc2F)cc1F | 4130 nM
74 | CCN(CC)S(=O)(=O)c1cccc(NC(=O)CNc2cccc(S(=O)(=O)N3CCOCC3)c2)c1 | 865 nM
75 | COc1ccccc1Cc1c(-c2ccco2)nc2c(C)cc(Br)cn12 | 1900 nM
76 | CN(CC(=O)Nc1cc(S(=O)(=O)N2CCCC2)ccc1Cl)Cc1ccc2c(c1)OCO2 | 13100 nM
77 | O=C(Nc1ccc2oc(-c3ccncc3)nc2c1)c1ccc([N+](=O)[O-])o1 | 18600 nM
78 | COc1ccc(CC(=O)Nc2ccncc2Cl)cc1 | 2120 nM
79 | CCCCn1c(CN(C)Cc2ccccc2)nc2c1c(=O)n(C)c(=O)n2C | 2380 nM
80 | Cc1nc(NC(C)c2ccccc2)c2oc3ccccc3c2n1 (stereo not given) | 3060 nM
81 | O=[N+]([O-])c1ccc(Sc2cccc3cccnc23)c([N+](=O)[O-])c1 | 1710 nM

Row | Structure (SMILES) | AC50
82 | COc1ccc(-n2c(C)cc(C(=O)CSc3nnc(-c4cccs4)o3)c2C)cc1 | 5030 nM
83 | CCN(CC)c1ccc(CNc2nc3ccccc3n2CCN2CCCCC2)cc1 | 2640 nM
84 | COc1ccc(NS(=O)(=O)c2ccc(C(=O)N3CCCCCC3)cc2)cc1 | 4510 nM
85 | CCCCNc1cc(C)nc(NCc2ccccc2)n1 | 719 nM
86 | COCc1c(C(=O)Nc2cccc(S(=O)(=O)N3CCCCC3)c2)oc2ccccc12 | 9630 nM
87 | O=C(Nc1nc(-c2ccccn2)cs1)c1ccccc1-n1cnnn1 | 1710 nM
88 | CN(C)C1=NC[C@H](Cc2ccccc2)N1CCCCc1ccccc1 | 8010 nM
89 | C[C@@H]1CN([C@@H](C)CO)C(=O)c2cc(NC(=O)Nc3ccc(F)cc3)ccc2O[C@@H]1CN(C)Cc1ccc(Oc2ccccc2)cc1 | 9380 nM
90 | O=C(/C=C/Sc1ncn[nH]1)c1ccc(Cl)cc1 | 9760 nM
91 | CC(=O)Nc1nc(C)c(-c2csc(Nc3cccc(C(C)=O)c3)n2)s1 | 1670 nM
92 | CC(C)c1nnc(NC(=O)c2nc(S(=O)(=O)Cc3ccccc3)ncc2Cl)s1 | 876 nM
93 | O=C(OCn1ncc(Cl)c(Cl)c1=O)c1ccccc1Cl | 3560 nM
94 | CC(OC(=O)c1ccc(S(C)(=O)=O)c([N+](=O)[O-])c1)C(=O)NC1C2CC3CC(C2)CC1C3 (stereo not given) | 1400 nM
95 | C=CCn1c(C)cc(C(=O)CN2C(=O)c3ccccc3S2(=O)=O)c1C | 974 nM
96 | O=[N+]([O-])/C=C/c1cn(Cc2ccc(Cl)cc2)c2ccccc12 | 8320 nM
97 | COc1ccc(C)c2sc(N(CCCN(C)C)C(=O)c3ccc(S(=O)(=O)N4CCc5ccccc5C4)cc3)nc12 | 4400 nM
98 | O=S(=O)(NCc1ccncc1)c1ccc(F)c(F)c1 | 2090 nM
99 | Cc1cc(C)c(C(N)=O)c(SCC(=O)c2cc(C)n(-c3cc(C)on3)c2C)n1 | 942 nM
100 | CC(C)CCOc1cccc(OCC(=O)Nc2ccncc2)c1 | 571 nM
101 | Cn1cc(S(=O)(=O)N2CCc3ccccc32)cc1C(=O)NC(C)(C)C | 1250 nM
102 | CCOc1cc(CNCCc2ccc(S(N)(=O)=O)cc2)ccc1OCc1ccccc1 | 2440 nM
103 | CCSc1nc2ccccc2n1C(=O)/C=C/c1ccc(OC)c(OC)c1 | 962 nM
104 | CN1CCN(c2ccc(-c3ccc4ccccc4n3)cc2)CC1 | 2730 nM
105 | C=CCNc1nc(N2CCCCC2)c(C#N)c2c1CN(Cc1ccccc1)CC2 | 16800 nM
